The record followed here is patent US9409881B2, “Herbicidally active 6′-phenyl-2,2′-bipyridine-3-carboxylic acid derivatives” (BAYER CROPSCIENCE AG, priority 2012, dated 2016).

Consider `COC(=O)c1cccnc1-c1cccc(-c2ccc(Cl)cc2)n1` [Chemical Example 2, Methyl 6′-(4-chlorophenyl)-2,2′-bipyridine-3-carboxylate], for which the melting point came to 120.5 °C.

In the case of `O=C(O)c1cccnc1-c1cccc(-c2ccc(Cl)cc2)n1` [Chemical Example 3, 6′-(4-Chlorophenyl)-2,2′-bipyridine-3-carboxylic acid], the melting point was 221 °C.
